Test results reported in patent US20230099441A1, “HETEROCYCLIC COMPOUND, APPLICATION THEREOF, AND COMPOSITION CONTAINING SAME” (GenEros Biopharma Ltd., priority 2019, published 2023).

What was measured:
[1] = system: STAT5 Y694 phosphorylation; assay: Protein electrophoresis and blotting of STAT5 Y694 phosphorylation in Jurkat cells stimulated with human interferon beta; type: cell-based; conditions: for Inhibiting Ratio (0% for vehicle control): 1 hour pretreatment, 20 ng/ml human interferon beta 30 minutes, pSTAT5/GAPDH; for Example of Effect 1: Inhibiting Ability (Protein Electrophoresis and Blotting): observed pSTAT5 bands at 10 μM and 100 μM
Outline: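 Serum-free Jurkat cells pretreated with compound 1 h, then stimulated with 20 ng/ml human interferon beta for 30 min at 37° C. pSTAT5 measured by western blot with chemiluminescence, normalized to GAPDH and expressed as percent of DMSO control.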

[2] = system: STAT5 Y694 phosphorylation; assay: HTRF experiment: STAT5 Y694 phosphorylation in Hela cells stimulated with human interferon beta; type: cell-based; conditions: 2 hours pretreatment, 10 nM human interferon beta 30 minutes
Protocol: Example of Effect 3: HTRF Experiment
Human Interferon 3 (IFN-0) (GenScript, Cat #P01574), STAT5 Y694 phosphorylation detection kit (STAT5 phospho-Y694 kit) (Cisbio; Cat #64AT5PEG).
Hela cells (ATCC American Standard Culture Center, CCL-2) were cultured in a 96-well plate at a density of 3×10^4 cells/well with DMEM medium containing 5% fetal bovine serum and maintained at 37° C. in a humidified incubator with 5% carbon dioxide overnight. On the second day, the original DMEM medium in the 96-well plate was sucked dry, and an equal volume of medium containing different concentrations of compounds (the mother liquor of the compound prepared by dimethyl sulfoxide was diluted in the medium at the required concentration) was added for pretreatment for 2 hours, and then it was placed in an incubator at 37° C. Then human interferon beta with a final concentration of 10 nM was added to stimulate, and it was gently shaken to mix well and then placed in an incubator at 37° C. for 30 minutes.
The medium was removed, an appropriate volume of PBS was added to wash, and then it was sucked dry. Then 40 microliters of 1× Lysis Buffer was added to each well and it was stood for 30 minutes at room temperature (1 ml 1× lysate preparation: 740 μl ddH2O was added to 250 μl 4× lysate and 10 μl Blocking reagent and it was mixed thoroughly). After 30 minutes, the cells were repeatedly blown until the lysis solution was not viscous (avoiding blowing out bubbles) to achieve sufficient lysis.
After overnight incubation, the signals of 665 nm and 620 nm were detected in a multifunctional microplate reader. The calculation formula for the detection of STAT5 Y694 phosphorylation is: Ratio=[(signal 665 nm)/(signal 620 nm)]×10^4. Treatment with dimethyl sulfoxide alone was the baseline control (Ratiobase), and the human interferon β stimulation without addition of the compound was the STAT5 Y694 full phosphorylation activation control (Ratiostimulation), the inhibition rate of STAT5 Y694 phosphorylation of different samples was normalized: Inhibition rate=[1−(RatioExperiment−Ratiobase)/(Ratiostimulation−Ratiobase)]*100.

SMILES | Example of Effect 3: Inhibiting Ratio@10 μM (HTRF Experiment) [2] [%] | further results
O=C(Cc1ccc(C(F)(F)F)cc1)N1CCC(n2c(=O)[nH]c3c(C(F)(F)F)cccc32)CC1 [GEN1-001, 4-(trifluoromethyl)-1-(1-(2-(4-(trifluoromethyl)phenyl)acetyl)piperidin-4-yl)-1H-benzo[d]imidazole-2(3H)-one] | 3.75 | Inhibiting Ratio (0% for vehicle control) ([1]; 1 μM): 11.0%; Inhibiting Ratio (0% for vehicle control) ([1]; 10 μM): 29.2%; Inhibiting Ratio (0% for vehicle control) ([1]; 100 μM): 96.8%; Example of Effect 1: Inhibiting Ability (Protein Electrophoresis and Blotting) [1]: +
COc1ccc2[nH]c(=O)n(C3CCN(C(=O)Cc4ccc(C(F)(F)F)cc4)CC3)c2c1 [GEN1-011, 6-methoxy-1-(1-(2-(4-(trifluoromethyl)phenyl)acetyl)piperidin-4-yl)-1H-benzo[d]imidazole-2 (3H)-one] | 20.49 | Example of Effect 1: Inhibiting Ability (Protein Electrophoresis and Blotting) [1]: +
O=C(Cc1ccc(C(F)(F)F)cc1)N1CCC(n2c(=O)[nH]c3cccc(C(F)(F)F)c32)CC1 [GEN1-013, 7-(trifluoromethyl)-1-(1-(2-(4-(trifluoromethyl)phenyl)acetyl)piperidin-4-yl)-1H-benzo[d]imidazole-2(3H)-one] | 20.29 | Inhibiting Ratio (0% for vehicle control) ([1]; 1 μM): 12.4%; Inhibiting Ratio (0% for vehicle control) ([1]; 10 μM): 62.6%; Inhibiting Ratio (0% for vehicle control) ([1]; 100 μM): 97.0%; Example of Effect 1: Inhibiting Ability (Protein Electrophoresis and Blotting) [1]: +
N#Cc1cccc2[nH]c(=O)n(C3CCN(C(=O)Cc4ccc(C(F)(F)F)cc4)CC3)c12 [GEN1-014, 2-oxo-3-(1-(2-(4-(trifluoromethyl)phenyl)acetyl)piperidin-4-yl)-2,3-dihydro-1H-benzo[d]imidazole-4-carbonitrile] | 16.12 | Inhibiting Ratio (0% for vehicle control) ([1]; 1 μM): 14.2%; Inhibiting Ratio (0% for vehicle control) ([1]; 10 μM): 78.8%; Inhibiting Ratio (0% for vehicle control) ([1]; 100 μM): 99.1%; Example of Effect 1: Inhibiting Ability (Protein Electrophoresis and Blotting) [1]: +
O=C(Cc1ccc(C(F)(F)F)cc1)N1CCC(n2c(=O)[nH]c3cccc(O)c32)CC1 [GEN1-016, 7-hydroxy-1-(1-(2-(4-(trifluoromethyl)phenyl)acetyl)piperidin-4-yl)-1H-benzo[d]imidazole-2 (3H)-one] | 9.50 | Example of Effect 1: Inhibiting Ability (Protein Electrophoresis and Blotting) [1]: +
CC(C)(C)c1ccc(CC(=O)N2CCC(n3c(=O)[nH]c4ccccc43)CC2)cc1 [GEN1-031, 1-(1-(2-(4-(tert-butyl)phenyl)acetyl)piperidin-4-yl)-1H-benzo[d]imidazole-2(3H)-one] | 0.13 | Inhibiting Ratio (0% for vehicle control) ([1]; 1 μM): 19.7%; Inhibiting Ratio (0% for vehicle control) ([1]; 10 μM): 38.1%; Inhibiting Ratio (0% for vehicle control) ([1]; 100 μM): 98.7%; Example of Effect 1: Inhibiting Ability (Protein Electrophoresis and Blotting) [1]: +
O=C(Cc1ccc(C(F)(F)F)cc1)N1CCC2(CC1)C(=O)NCN2c1ccccc1 [GEN1-049, 1-phenyl-8-(2-(4-(trifluoromethyl)phenyl)acetyl)-1,3,8triazaspiro[4.5]decane-4-one] | 18.33 | Example of Effect 1: Inhibiting Ability (Protein Electrophoresis and Blotting) [1]: −
O=C(Cc1ccc(C(F)(F)F)cc1)N1CCC(n2c(=S)[nH]c3ccccc32)CC1 [GEN1-050, 1-(4-(2-thioxo-2,3-dihydro-1H-benzo[d]imidazol-1-yl)piperidin-1-yl)-2-(4-(trifluoromethyl)phenyl)ethanone] | 15.28 | Example of Effect 1: Inhibiting Ability (Protein Electrophoresis and Blotting) [1]: +
O=C1CN(C2CCN(C(=O)Cc3ccc(C(F)(F)F)cc3)CC2)c2ccc(C(F)(F)F)cc2N1 [GEN1-135, 7-(trifluoromethyl)-4-(1-(2-(4-(trifluoromethyl)phenyl)acetyl)piperidin-4-yl)-3,4-dihydroquinoxaline-2(1H)-one] | 22.91 | 
O=C(Cc1ccc(C(F)(F)F)cc1)N1CCC(c2c(Br)[nH]c3ccccc23)CC1 [GEN1-139, 1-(4-(2-bromo-1H-indol-3-yl)piperidin-1-yl)-2-(4-(trifluoromethyl)phenyl)ethenone] | 18.43 | 
O=C1Nc2ccccc2C2(CCN(C(=O)Cc3ccc(C(F)(F)F)cc3)CC2)O1 [GEN1-178, 1′-(2-(4-(trifluoromethyl)phenyl)acetyl)spiro[benzo[d][1,3]oxazine-4,4′-piperidine]-2(1H)-one] | 8.67 | 
O=C1Nc2ccccc2C2(CCN(C(=O)Cc3ccc(C(F)(F)F)cc3)CC2)N1 [GEN1-179, 1-(2-(4-(trifluoromethyl)phenyl)acetyl)-1′H-spiro[piperidin-4,4′-quinazoline]-2′(3′H)-one] | 10.11 | 
O=C(Cc1ccc(C(F)(F)F)cc1)N1CCC(N2C(=O)NCc3cccc(C(F)(F)F)c32)CC1 [GEN1-265, 8-(trifluoromethyl)-1-(1-(2-(4-(trifluoromethyl)phenyl)acetyl)piperidin-4-yl)-3,4-dihydroquinazolin-2(1H)-one] | 16.47 | 
O=C(C[C@H]1CC[C@H](C(F)(F)F)CC1)N1CCC(n2c(=O)[nH]c3cccc(C(F)(F)F)c32)CC1 [GEN1-268, 7-(trifluoromethyl)-1-(1-(2-((1R,4R)-4-(trifluoromethyl)cyclohexyl)acetyl)piperidin-4-yl)-1H-benzo[d]imidazol-2(3H)-one] | 58.21 | 
COc1cccc(CC(=O)N2CCC(n3c(=O)[nH]c4ccccc43)CC2)c1 [GEN1-270] | 21.10 | 
COc1ccccc1CC(=O)N1CCC(n2c(=O)[nH]c3ccccc32)CC1 [GEN1-271] | 9.33 | 
O=C(Cc1ccc2c(c1)CCCN2)N1CCC(n2c(=O)[nH]c3cccc(C(F)(F)F)c32)CC1 [GEN1-276, 1-(1-(2-(1,2,3,4-tetrahydroquinolin-6-yl)acetyl)piperidin-4-yl)-7-(trifluoromethyl)-1,3-dihydro-2H-benzo[d]imidazol-2-one] | 55.48 | 
O=C(Cc1ccc(C(F)(F)F)cc1)N1CCC(n2c(=O)[nH]c3ccc(-c4ccccc4)c(C(F)(F)F)c32)CC1 [GEN1-277, 6-phenyl-7-(trifluoromethyl)-1-(1-(2-(4-(trifluoromethyl)phenyl)acetyl)piperidin-4-yl)-1H-benzo[d]imidazol-2(3H)-one] | 6.52 | 
COc1cc(CC(=O)N2CCC(n3c(=O)[nH]c4cccc(C(F)(F)F)c43)CC2)ccc1Cl [GEN1-278, 1-(1-(2-(4-chloro-3-methoxyphenyl)acetyl)piperidin-4-yl)-7-(trifluoromethyl)-1,3-dihydro-2H-benzo[d]imidazol-2-one] | 73.74 | 
O=C(Cc1ccc(Cl)c(OC(F)(F)F)c1)N1CCC(n2c(=O)[nH]c3cccc(C(F)(F)F)c32)CC1 [GEN1-280, 1-(1-(2-(4-chloro-3-(trifluoromethoxy)phenyl)acetyl)piperidin-4-yl)-7-(trifluoromethyl)-1,3-dihydro-2H-benzo[d]imidazol-2-one] | 20.53 | 
O=C(Cc1ccc(C(F)(F)F)cc1)N1CCC(n2c(=O)[nH]c3cccc(Cl)c32)CC1 [GEN1-281] | 50.87 | 
Cc1cccc2[nH]c(=O)n(C3CCN(C(=O)Cc4ccc(C(F)(F)F)cc4)CC3)c12 [GEN1-282] | 49.93 | 
CCOc1cccc(CC(=O)N2CCC(n3c(=O)[nH]c4ccccc43)CC2)c1 [GEN1-287] | 8.72 | 
O=C(Cc1ccc(C(F)(F)F)cc1)N1CCC(n2c(=O)[nH]c3cccc(F)c32)CC1 [GEN1-289] | 6.86 | 
O=C(Cc1ccc(C(F)(F)F)cc1)N1CCC(n2c(=O)[nH]c3cccc(Br)c32)CC1 [GEN1-290] | 57.51 | 
O=C(Cc1ccc2ncccc2c1)N1CCC(n2c(=O)[nH]c3cccc(Cl)c32)CC1 [GEN1-291] | 70.98 | 
Cc1cccc2[nH]c(=O)n(C3CCN(C(=O)Cc4ccc5ncccc5c4)CC3)c12 [GEN1-292, 7-methyl-1-(1-(2-(quinolin-6-yl)acetyl)piperidin-4-yl)-1,3-dihydro-2H-benzo[d]imidazol-2-one] | 59.63 | 
O=C(Cc1ccc2ncccc2c1)N1CCC(n2c(=O)[nH]c3cc(Cl)ccc32)CC1 [GEN1-294] | 1.85 | 
